From patent US20210300940A1 (Merck Patent GmbH, priority 2018, published 2021)
Structures can show the parent of a compound that is named as a salt.

Legend:
[1] = target: T1, TLR8 (Homo sapiens, UniProt Q9NR97); test: HEK/293 TLR8 Cell Assay; type: cell-based; conditions: HEK cells, R848 agonist 30 uM final concentration, Steady-Glo readout; read-out: TLR8 potency
T1 construct: expressed in transfected cells; host or cells: HEK/293 reporter cells (NF-kB luciferase)
T1 sequence (Q9NR97 27-1041): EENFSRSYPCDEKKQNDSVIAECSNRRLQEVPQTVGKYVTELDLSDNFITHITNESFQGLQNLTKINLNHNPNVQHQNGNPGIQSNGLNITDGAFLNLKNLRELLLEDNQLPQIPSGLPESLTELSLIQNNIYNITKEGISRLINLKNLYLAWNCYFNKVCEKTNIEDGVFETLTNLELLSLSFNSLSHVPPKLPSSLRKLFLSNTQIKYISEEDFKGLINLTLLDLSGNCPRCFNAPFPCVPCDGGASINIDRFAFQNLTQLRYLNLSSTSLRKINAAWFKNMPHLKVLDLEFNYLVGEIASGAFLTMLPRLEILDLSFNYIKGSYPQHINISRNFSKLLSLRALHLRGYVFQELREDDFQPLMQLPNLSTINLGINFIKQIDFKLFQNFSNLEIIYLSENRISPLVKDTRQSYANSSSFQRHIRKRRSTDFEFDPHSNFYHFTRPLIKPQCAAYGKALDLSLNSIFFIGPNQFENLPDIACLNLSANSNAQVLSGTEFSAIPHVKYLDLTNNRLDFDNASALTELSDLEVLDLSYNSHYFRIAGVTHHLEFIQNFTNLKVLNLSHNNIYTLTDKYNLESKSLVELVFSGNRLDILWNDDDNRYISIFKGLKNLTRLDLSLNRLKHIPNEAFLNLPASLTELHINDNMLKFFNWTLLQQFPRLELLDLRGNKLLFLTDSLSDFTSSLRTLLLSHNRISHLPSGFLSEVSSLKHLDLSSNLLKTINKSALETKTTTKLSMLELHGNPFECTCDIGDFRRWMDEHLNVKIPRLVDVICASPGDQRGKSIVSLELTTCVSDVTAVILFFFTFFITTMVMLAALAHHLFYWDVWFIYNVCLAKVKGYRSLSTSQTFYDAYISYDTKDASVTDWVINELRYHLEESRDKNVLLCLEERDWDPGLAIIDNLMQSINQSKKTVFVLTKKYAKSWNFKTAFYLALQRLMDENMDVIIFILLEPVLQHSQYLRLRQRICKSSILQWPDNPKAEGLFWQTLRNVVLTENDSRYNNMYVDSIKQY

[2] = target: T2, TLR7 (Homo sapiens, UniProt Q9NYK1); test: HEK/293 TLR7 Cell Assay; type: cell-based; conditions: TLR7/NFKb HEK cells, R848 agonist 10 uM final concentration, Steady-Glo readout; read-out: TLR7 potency
T2 construct: expressed in transfected cells; host or cells: HEK/293 cells carrying TLR7 and an NF-kB luciferase reporter
T2 sequence (Q9NYK1 27-1049): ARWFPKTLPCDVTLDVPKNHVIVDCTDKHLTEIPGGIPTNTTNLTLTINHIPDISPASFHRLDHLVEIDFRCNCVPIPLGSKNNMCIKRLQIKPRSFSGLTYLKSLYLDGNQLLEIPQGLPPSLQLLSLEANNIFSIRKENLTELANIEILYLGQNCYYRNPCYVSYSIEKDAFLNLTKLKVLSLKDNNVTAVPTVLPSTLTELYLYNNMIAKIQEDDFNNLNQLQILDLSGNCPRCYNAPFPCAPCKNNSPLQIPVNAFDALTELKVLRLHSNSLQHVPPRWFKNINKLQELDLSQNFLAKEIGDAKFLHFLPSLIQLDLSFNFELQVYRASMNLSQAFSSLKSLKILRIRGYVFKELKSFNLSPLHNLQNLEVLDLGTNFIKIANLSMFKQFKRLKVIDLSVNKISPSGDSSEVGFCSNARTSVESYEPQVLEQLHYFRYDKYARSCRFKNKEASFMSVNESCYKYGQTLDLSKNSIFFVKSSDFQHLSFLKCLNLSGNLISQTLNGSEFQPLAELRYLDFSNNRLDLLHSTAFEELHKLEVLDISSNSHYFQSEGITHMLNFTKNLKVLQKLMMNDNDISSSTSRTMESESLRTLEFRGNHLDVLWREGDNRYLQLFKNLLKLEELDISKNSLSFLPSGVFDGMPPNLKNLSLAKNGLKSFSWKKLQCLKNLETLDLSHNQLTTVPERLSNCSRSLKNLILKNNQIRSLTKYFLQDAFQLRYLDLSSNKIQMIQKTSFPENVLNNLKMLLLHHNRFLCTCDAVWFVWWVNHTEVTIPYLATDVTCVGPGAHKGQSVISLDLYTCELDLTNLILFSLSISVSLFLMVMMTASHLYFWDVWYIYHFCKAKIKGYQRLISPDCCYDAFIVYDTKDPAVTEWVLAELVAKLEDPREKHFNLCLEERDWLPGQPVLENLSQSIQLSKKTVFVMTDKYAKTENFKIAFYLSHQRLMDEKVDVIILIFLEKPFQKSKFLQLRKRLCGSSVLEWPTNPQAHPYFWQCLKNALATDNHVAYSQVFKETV
Procedure, shortened: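 Compounds added to HEK cells expressing TLR7 with an NFκB reporter 30 min ahead of 10 uM R848 challenge; luciferase signal (Steady-Glo) measured after 5 h, cells having been seeded 24 h earlier at 5000 per well.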

Row | Compound | IC50 [1] [µM] | IC50 [2] [µM]
1 | C[C@H]1C[C@@H](OCCN2CCN(C)CC2)CN(c2ccc(C(F)(F)F)c3ncccc23)C1 (racemic) [Example 2, 5-[cis-3-methyl-5-[2-(4-methylpiperazin-1-yl)ethoxy]piperidin-1-yl]-8-(trifluoromethyl)quinoline] | < 0.075 | < 0.075
2 | C[C@H]1C[C@@H](NC(=O)C2(F)CCNC2)CN(c2ccc(C(F)(F)F)c3ncccc23)C1 (stereo partly drawn) [Example 205, 3-fluoro-N-[(3R,5S)-5-methyl-1-[8-(trifluoromethyl)quinolin-5-yl]piperidin-3-yl]pyrrolidine-3-carboxamide] | < 0.075 | < 0.075
3 | C[C@H]1C[C@@H](NC(=O)CCN(C)C)CN(c2ccc(C(F)(F)F)c3nccnc23)C1 [Example 78] | < 0.075 | < 0.075
4 | C[C@H]1C[C@@H](NCC2COC2)CN(c2ccc(C#N)c3nccnc23)C1 [Example 47, 8-{(3S,5R)-3-Methyl-5-[(oxetan-3-ylmethyl)-amino]-piperidin-1-yl}-quinoxaline-5-carbonitrile] | < 0.075 | < 0.075
5 | Cc1ncc(N2C[C@H](NC(=O)CC3CCNCC3F)C[C@H](C(F)(F)F)C2)c2cccnc12 (stereo partly drawn) [Example 136, 2-(3-Fluoro-piperidin-4-yl)-N-[(3R,5S)-1-(8-methyl-[1,7]naphthyridin-5-yl)-5-trifluoromethyl-piperidin-3-yl]-acetamide] | < 0.075 | 0.075 to 0.15
6 | C[C@H]1C[C@@H](NC(=O)CCN(C)C)CN(c2ccc(C#N)c3nccnc23)C1 [Example 79] | < 0.075 | < 0.075
7 | C[C@H]1C[C@@H](NCCN2CCNC2=O)CN(c2ccc(C(F)(F)F)c3ncccc23)C1 [Example 27, 1-{2-[(3R,5S)-5-Methyl-1-(8-trifluoromethyl-quinolin-5-yl)-piperidin-3-ylamino]-ethyl}-imidazolidin-2-one] | < 0.075 | < 0.075
8 | CC(C(=O)N[C@@H]1C[C@H](C)CN(c2ccc(C#N)c3nccnc23)C1)N1CCN(C)CC1 (single isomer, unassigned) [Example 90] | < 0.075 | < 0.075
9 | C[C@H]1C[C@@H](N)CN(c2cnc(C(F)(F)F)c3ncccc23)C1 [Example 7, (3R,5S)-5-Methyl-1-(8-trifluoromethyl-[1,7]naphthyridin-5-yl)-piperidin-3-ylamine hydrochloride] | < 0.075 | < 0.075
10 | C[C@@H]1CN(c2ccc(C#N)c3nccnc23)C[C@H](C(=O)NC[C@H]2COCCN2C)O1 (single isomer, unassigned) [Example 263] | < 0.075 | < 0.075
11 | C[C@H]1C[C@@H](NCC(=O)N2CC(O)C2)CN(c2ccc(C(F)(F)F)c3ncccc23)C1 [Example 51, 1-(3-Hydroxy-azetidin-1-yl)-2-[(3R,5S)-5-methyl-1-(8-trifluoromethyl-quinolin-5-yl)-piperidin-3-ylamino]-ethanone] | < 0.075 | < 0.075
12 | C[C@H]1C[C@@H](NC(=O)[C@@H](C)N2CCC(O)CC2)CN(c2ccc(C#N)c3nccnc23)C1 (single isomer, unassigned) [Example 103] | < 0.075 | > 0.15
13 | C[C@H]1C[C@@H](NC(=O)CN2CCN(C)CC2)CN(c2cnc(C#N)c3nccnc23)C1 [Example 188, N-[(3R,5S)-1-(5-Cyano-pyrido[3,4-b]pyrazin-8-yl)-5-methyl-piperidin-3-yl]-2-(4-methyl-piperazin-1-yl)-acetamide] | < 0.075 | < 0.075
14 | C[C@@H]1CN(c2ccc(C#N)c3nccnc23)C[C@H](C(=O)NC2CCN(CC3CC3)C2)O1 (stereo partly drawn) [Example 241, (2R,6R)-4-(8-Cyano-quinoxalin-5-yl)-6-methyl-morpholine-2-carboxylic acid (1-cyclopropylmethyl-pyrrolidin-3-yl)-amide] | < 0.075 | < 0.075
15 | Cc1c(F)cc(N2C[C@@H](C)C[C@@H](NC(=O)NCCN(C)C)C2)c2cccnc12 [Example 145, 3-[2-(dimethylamino)ethyl]-1-[(3R,5S)-1-(7-fluoro-8-methylquinolin-5-yl)-5-methylpiperidin-3-yl]urea] | < 0.075 | < 0.075
16 | C[C@@H]1CN(c2ccc(C#N)c3nccnc23)C[C@H](C(=O)NCC2(F)CCN(C)CC2)O1 [Example 253, (2R,6R)-4-(8-Cyano-quinoxalin-5-yl)-6-methyl-morpholine-2-carboxylic acid (4-fluoro-1-methyl-piperidin-4-ylmethyl)-amide] | < 0.075 | < 0.075
17 | Cc1nnc([C@H]2CN(c3ccc(C#N)c4nccnc34)C[C@@H](C)O2)o1 (racemic) [Example 212, 8-[(2R,6R)-2-Methyl-6-(5-methyl-[1,3,4]oxadiazol-2-yl)-morpholin-4-yl]-quinoxaline-5-carbonitrile] | < 0.075 | > 0.15
18 | N#Cc1ccc(N2C[C@@H](C(F)(F)F)O[C@@H](C(=O)N3C[C@@H](N)C4(CC4)C3)C2)c2nccnc12 (single isomer, unassigned) [Example 311] | < 0.075 | < 0.075
19 | C[C@@H]1CN(c2ccc(C#N)c3nccnc23)C[C@H](C(=O)NC[C@H]2COCCN2)O1 (single isomer, unassigned) [Example 296] | < 0.075 | < 0.075
20 | N#Cc1ccc(N2C[C@H](NCCNC(N)=O)C[C@H](C(F)(F)F)C2)c2cccnc12 [Example 40, {2-[(3R,5S)-1-(8-Cyano-quinolin-5-yl)-5-trifluoromethyl-piperidin-3-ylamino]-ethyl}-urea] | 0.075 to 0.15 | > 0.15
21 | N#Cc1ccc(N2C[C@H](NC(=O)C3CCCCN3)C[C@H](C(F)(F)F)C2)c2cccnc12 (stereo partly drawn) [Example 183, Piperidine-2-carboxylic acid [(3R,5S)-1-(8-cyano-quinolin-5-yl)-5-trifluoromethyl-piperidin-3-yl]-amide] | 0.075 to 0.15 | 0.075 to 0.15
22 | C[C@@H]1CN(c2ccc(C#N)c3nccnc23)C[C@H](C(=O)NCC2(F)CCNC2)O1 (stereo partly drawn) [Example 292, (2R,6R)-4-(8-Cyano-quinoxalin-5-yl)-6-methyl-morpholine-2-carboxylic acid (3-fluoro-pyrrolidin-3-ylmethyl)-amide] | < 0.075 | < 0.075
23 | N#Cc1ccc(N2C[C@@H](C(F)(F)F)O[C@@H](C(=O)NC[C@@]3(F)CCNC3)C2)c2nccnc12 (single isomer, unassigned) [Example 307] | < 0.075 | < 0.075
24 | C[C@H]1C[C@@H](NC(=O)C[C@H]2CCNC[C@H]2F)CN(c2ccc(C#N)c3ncncc23)C1 [Example 132, N-[(3R,5S)-1-(8-cyanoquinazolin-5-yl)-5-methylpiperidin-3-yl]-2-[(3S,4R)-3-fluoropiperidin-4-yl]acetamide] | 0.075 to 0.15 | < 0.075
